Test results taken from patent publication US20260015357A1, “MODULATORS OF NLRP3 INFLAMMASOME AND RELATED PRODUCTS AND METHODS” (Neumora Therapeutics, Inc., priority 2022, published 2026).

Columns and labels:
NLRP3 inflammasome = target: T1, NLRP3 inflammasome (Homo sapiens, UniProt Q96P20); experiment: NLRP3 inflammasome activation in LPS-primed, nigericin-activated THP1 macrophages, IL-1β AlphaLISA; format: cell-based; details: PMA-differentiated, 1 hr compound, Nigericin 6.7 uM 3 hrs, IL-1β in supernatant
T1 construct: host or cells: THP1 human acute monocytic leukemia cells, PMA-differentiated, LPS-primed
Method: (§1) NLRP3 Inflammasome Activation and Cell Viability Assessment in THP1 Macrophages
(§2) THP1—Human acute monocytic leukemia cells were cultured (ATCC, cat #TIB-202) in Gibco RPMI-1640 medium (ThermoFisher cat #72400054) supplemented with 10% Heat Inactivated FBS at density between 3-8×10^5 viable cells/mi. The cells were then subcultured when the cell concentration reached 8×10^5 cells/mL (every 2-3 days).
(§3) The parameter wells were filled with 50 ul PBS and incubated at 37° C., 5% CO2 for 48 hrs.
(§4) After 48 hrs incubation, the PMA containing media was removed, and changed for 40 ul/well of fresh DMEM, 10% FBS, 1× GlutaMax and incubated at 37° C., 5% CO2 for 24 hrs.
(§5) The following day the cells were primed with LPS (E. coli) (Sigma, cat #L3129) […] in DMEM, 10% FBS, 1× GlutaMax for 3 hrs at 37° C., 5% CO2.
(§6) Following the LPS priming step, the cells were treated with compounds at 10 uM top final concentration, 1:4 dilution, 8 times: (10 uM, 2.5 uM, 0.625 uM, 0.156 uM, 0.039 uM, 0.0097 uM, 0.0024 uM, 0.0006 uM). DMSO was used as a vehicle control, and MCC950 (InvivoGen, cat #inh-mcc) was used at 1 uM as a positive control, and incubated for 1 hrs at 37° C., 5% CO2.
(§7) Following the 1 hr compound incubation, the NLRP3 inflammasome activation step was conducted by treating cells with Nigericin (InvivoGen, cat #tlrl-nig) at 6.7 uM final concentration for 3 hrs at 37° C., 5% CO2.
(§8) Thereafter, 30 ul samples of cells' supernatants were collected for cytokine analysis which was conducted on Hu IL-1β AlphaLISA (Perkin Elmer, cat #AL220C) and Hu IL-6 AlphaLISA (Perkin Elmer, cat #AL220C). The cells' viability was assessed by performing CellTiter-Glo Luminescent Assay (Promega, cat #G7572) according to the manufacturer's protocol.

IL-6 = IL-6 in supernatants of LPS-primed, nigericin-treated THP1 macrophages, Hu IL-6 AlphaLISA; format: cell-based; details: Homo sapiens, THP-1, PMA-differentiated, 1 hr compound, Nigericin 6.7 uM 3 hrs, IL-6 in supernatant
Method: as §1, §2, §3, §4, §5, §6, §7, §8

T1 sequence (Q96P20 whole entry): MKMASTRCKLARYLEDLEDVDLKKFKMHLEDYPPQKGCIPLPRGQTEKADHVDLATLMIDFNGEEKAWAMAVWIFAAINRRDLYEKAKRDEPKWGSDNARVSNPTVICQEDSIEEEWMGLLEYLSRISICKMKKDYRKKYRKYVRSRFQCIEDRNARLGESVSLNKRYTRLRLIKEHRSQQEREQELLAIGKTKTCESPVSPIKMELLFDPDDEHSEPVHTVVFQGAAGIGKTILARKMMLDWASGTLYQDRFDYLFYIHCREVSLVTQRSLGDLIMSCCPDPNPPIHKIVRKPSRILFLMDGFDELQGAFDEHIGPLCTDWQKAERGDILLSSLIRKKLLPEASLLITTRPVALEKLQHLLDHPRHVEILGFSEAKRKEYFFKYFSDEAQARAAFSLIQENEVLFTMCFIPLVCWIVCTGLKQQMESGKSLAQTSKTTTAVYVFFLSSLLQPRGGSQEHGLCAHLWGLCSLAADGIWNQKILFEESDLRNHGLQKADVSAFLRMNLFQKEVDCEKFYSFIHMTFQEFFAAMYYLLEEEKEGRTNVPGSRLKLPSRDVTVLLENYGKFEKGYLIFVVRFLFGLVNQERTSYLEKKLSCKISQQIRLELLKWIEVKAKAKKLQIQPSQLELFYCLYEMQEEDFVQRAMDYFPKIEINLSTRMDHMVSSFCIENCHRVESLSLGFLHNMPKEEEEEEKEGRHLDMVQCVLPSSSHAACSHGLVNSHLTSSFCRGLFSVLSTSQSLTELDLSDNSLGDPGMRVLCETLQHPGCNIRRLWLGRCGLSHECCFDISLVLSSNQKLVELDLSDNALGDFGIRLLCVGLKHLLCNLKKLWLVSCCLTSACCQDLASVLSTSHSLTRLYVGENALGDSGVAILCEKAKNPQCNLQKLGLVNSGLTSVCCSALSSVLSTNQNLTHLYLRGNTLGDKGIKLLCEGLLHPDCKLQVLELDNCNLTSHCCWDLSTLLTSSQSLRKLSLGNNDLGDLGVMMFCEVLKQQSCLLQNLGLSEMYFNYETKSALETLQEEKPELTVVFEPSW

Row | IC50 (NLRP3 inflammasome) [nM] | IC50 (IL-6) [nM] | SMILES
1 | 10 to 100 | 5000 to 10000 | CN1CCC[C@@H](Nc2nnc(-c3ccc(C(F)(F)F)cc3)c3ccn(C)c23)C1 [Compound 26]
2 | 1000 to 10000 | ≥ 10000 | Cn1ccc2c(-c3ccc(C(F)(F)F)cc3)nnc(N[C@@H]3CCCN(S(C)(=O)=O)C3)c21 [Compound 159]
3 | 100 to 500 | 1000 to 5000 | CN1CCC[C@@H](Nc2nnc(-c3ccc(C(F)(F)F)cc3)c3occc23)C1 [Compound 54]
4 | ≥ 10000 | ≥ 10000 | CN1CCC[C@@H](N(C)c2nnc(-c3ccc(C(F)(F)F)cc3)c3c2cnn3C)C1 [Compound 106]
5 | 1000 to 10000 | ≥ 10000 | CN1CCC[C@@H](N(C)c2nnc(-c3ccc(C(F)(F)F)cc3)c3ccoc23)C1 [Compound 93]
6 | < 10 | ≥ 10000 | Cc1cc2c(-c3ccc(C(F)(F)F)cc3)nnc(N[C@@H]3CCCN(C)C3)c2[nH]1 [Compound 21]
7 | 10 to 100 | ≥ 10000 | CN1CCC[C@@H](N(C)c2nnc(-c3ccc(F)cc3O)c3cc[nH]c23)C1 [Compound 96]
8 | < 10 | ≥ 10000 | CN1CCC[C@@H](Nc2nnc(-c3ccc(Cl)cc3)c3ccn(C)c23)C1 [Compound 80]
9 | ≥ 10000 | ≥ 10000 | CN1CCC[C@@H](Nc2nnc(-c3ccccc3C(F)F)c3[nH]ccc23)C1 [Compound 13]
10 | 10 to 100 | 1000 to 5000 | CN1CCC[C@@H](Nc2nnc(-c3ccc(F)cc3)c3cc[nH]c23)C1 [Compound 5]
11 | 10 to 100 | ≥ 10000 | COCCN1CCC[C@@H](Nc2nnc(-c3ccc(C#N)cc3O)c3cnsc23)C1 [Compound 154]
12 | 1000 to 10000 | ≥ 10000 | CN1CCC[C@@H](N(C)c2nnc(-c3ccc(C(F)(F)F)cc3)c3ccn(C)c23)C1 [Compound 27, (R)—N,1-dimethyl-N-(1-methylpiperidin-3-yl)-4-(4-(trifluoromethyl)phenyl)-1H-pyrrolo[2,3-d]pyridazin-7-amine]
13 | 10 to 100 | ≥ 10000 | CN1CCC[C@@H](Nc2nnc(-c3ncc(C(F)(F)F)cc3O)c3cnn(C)c23)C1 [Compound 166]
14 | 10 to 100 | 1000 to 5000 | CN1CCCC(Cc2nnc(-c3ccc(C(F)(F)F)cc3)c3cc[nH]c23)C1 (stereo not drawn) [Compound 83]
15 | < 10 | ≤ 1000 | CCN1CCC[C@@H](Nc2nnc(-c3ccc(C(F)(F)F)cc3)c3ccn(C)c23)C1 [Compound 76]
16 | ≥ 10000 | ≥ 10000 | CN1CCC[C@@H](Nc2nnc(-c3ccc(C(F)(F)F)cc3)c3c2CCO3)C1 [Compound 59]
17 | 10 to 100 | 5000 to 10000 | Cn1ccc2c(-c3ccc(C#N)cc3O)nnc(N[C@@H]3CCCNC3)c21 [Compound 158]
18 | 1000 to 10000 | ≥ 10000 | Cc1cc2c(N[C@@H]3CCCN(C)C3)nnc(-c3ccc(C(F)(F)F)cc3)c2[nH]1 [Compound 75]
